Measured values as given in patent US12622902B2, “Anti-arrhythmic pharmaceutical composition and preparation method therefor” (JIANGSU KANION PHARMACEUTICAL CO., LTD., priority 2020, dated 2026).

What was measured:
[1] = system: ventricular tachycardia and ventricular fibrillation; conditions: cited from earlier work
[2] = Study of compositions of compound A and its salt under moisture and heat; type: physicochemical; conditions: condition of moisture and heat
From the text: Accordingly, the present application provides an anti-arrhythmic pharmaceutical composition with high stability and rapid dissolution, and a preparation method thereof.

- stability of the drug in a pharmaceutical composition [2]: decomposed
SMILES: COc1cc2c(cc1OCc1ccccc1)C(Cc1cccc(NS(C)(=O)=O)c1)NCC2 (stereo not drawn) [compound A, 1-(3-methanesulfonamidobenzyl)-6-methoxy, 7-benzyloxy-1,2,3,4-tetrahydroisoquinoline]
- effect on ventricular tachycardia and ventricular fibrillation [1]: effective
- action potential duration ([1]; class III anti-arrhythmic drug): can prolong
